Laboratory results reported in publication PMC5218480 (PLoS ONE, 2017).

Test system: MV-4-11 cells
Assay: Gene expression microarray analysis (Affymetrix PrimeView) and GSEA
Assay type: cell-based, human
Set-up: RFU PODN (11730768_x_at) / Fold change /veh PODN (11730768_x_at) / RFU LINC00158 (11744669_a_at) / Fold change /veh LINC00158 (11744669_a_at) / RFU DUSP10 (11751237_a_at) / Fold change /veh DUSP10 (11751237_a_at) / RFU ID3 (11757404_x_at) / Fold change /veh ID3 (11757404_x_at) / RFU PLEKHG5 (11737974_s_at) / Fold change /veh PLEKHG5 (11737974_s_at) / RFU LRRC4B (11730491_at) / Fold change /veh LRRC4B (11730491_at) / RFU GIMAP4 (11747438_a_at) / Fold change /veh GIMAP4 (11747438_a_at) / RFU KRT8 (11758183_x_at) / Fold change /veh KRT8 (11758183_x_at) / RFU CNN1 (11734310_a_at) / Fold change /veh CNN1 (11734310_a_at) / RFU VPS37D (11726825_at) / Fold change /veh VPS37D (11726825_at) / RFU C10orf10 (11716522_x_at) / Fold change /veh C10orf10 (11716522_x_at) / RFU KIR2DL2 /// KIR2DL4 /// KIR2DL5A /// KIR2DL5B /// KIR2DS1 /// KIR2DS2 /// KIR2DS3 /// KIR2DS4 /// KIR3DL3 /// KIR3DL3 /// KIR3DS1 (11738374_at) / Fold change /veh KIR2DL2 /// KIR2DL4 /// KIR2DL5A /// KIR2DL5B /// KIR2DS1 /// KIR2DS2 /// KIR2DS3 /// KIR2DS4 /// KIR3DL3 /// KIR3DL3 /// KIR3DS1 (11738374_at) / RFU C1QL1 (11718748_at) / Fold change /veh C1QL1 (11718748_at) / RFU TMPRSS4 (11747572_a_at) / Fold change /veh TMPRSS4 (11747572_a_at) / RFU HAMP (11756126_x_at) / Fold change /veh HAMP (11756126_x_at) / RFU RNFT2 (11725882_a_at) / Fold change /veh RNFT2 (11725882_a_at) / RFU NR4A2 (11747474_a_at) / Fold change /veh NR4A2 (11747474_a_at) / RFU ABCC12 (11746883_a_at) / Fold change /veh ABCC12 (11746883_a_at) / RFU TMEM136 (11760407_x_at) / Fold change /veh TMEM136 (11760407_x_at) / RFU CLDN22 /// WWC2 (11732394_at) / Fold change /veh CLDN22 /// WWC2 (11732394_at) / RFU HLA-DPB1 (11760878_x_at) / Fold change /veh HLA-DPB1 (11760878_x_at) / RFU SPINT1 (11716480_a_at) / Fold change /veh SPINT1 (11716480_a_at) / RFU GAP43 (11754022_s_at) / Fold change /veh GAP43 (11754022_s_at) / RFU A4GNT (11735810_at) / Fold change /veh A4GNT (11735810_at) / RFU PRB3 (11715151_x_at) / Fold change /veh PRB3 (11715151_x_at) / RFU TUBB4B (11761932_at) / Fold change /veh TUBB4B (11761932_at) / RFU CAPN14 (11732068_a_at) / Fold change /veh CAPN14 (11732068_a_at) / RFU TMCC2 (11721928_a_at) / Fold change /veh TMCC2 (11721928_a_at) / RFU IRGQ (11745062_a_at) / Fold change /veh IRGQ (11745062_a_at) / RFU FAM174B (11720279_a_at) / Fold change /veh FAM174B (11720279_a_at) / RFU TMPRSS4 (11748680_a_at) / Fold change /veh TMPRSS4 (11748680_a_at) / RFU FAM212B (11763350_a_at) / Fold change /veh FAM212B (11763350_a_at) / RFU PLEKHG5 (11743358_a_at) / Fold change /veh PLEKHG5 (11743358_a_at) / RFU ZSCAN30 (11745921_a_at) / Fold change /veh ZSCAN30 (11745921_a_at) / RFU CMKLR1 (11741424_a_at) / Fold change /veh CMKLR1 (11741424_a_at) / RFU LOC101060620 /// MAPK8IP1 (11723275_at) / Fold change /veh LOC101060620 /// MAPK8IP1 (11723275_at) / RFU SPTSSB (11747773_x_at) / Fold change /veh SPTSSB (11747773_x_at) / RFU PRSS12 (11739890_at) / Fold change /veh PRSS12 (11739890_at) / RFU BIN1 (11741810_x_at) / Fold change /veh BIN1 (11741810_x_at) / RFU WNT11 (11732464_a_at) / Fold change /veh WNT11 (11732464_a_at) / RFU C10orf10 (11716521_a_at) / Fold change /veh C10orf10 (11716521_a_at) / RFU C5orf56 (11738089_at) / Fold change /veh C5orf56 (11738089_at) / RFU CYB561 (11721691_x_at) / Fold change /veh CYB561 (11721691_x_at) / RFU ANKRD19P (11752326_a_at) / Fold change /veh ANKRD19P (11752326_a_at) / RFU OR2T12 /// OR2T33 /// OR2T8 (11738714_s_at) / Fold change /veh OR2T12 /// OR2T33 /// OR2T8 (11738714_s_at) / RFU VCAN (11748164_a_at) / Fold change /veh VCAN (11748164_a_at) / RFU JSRP1 (11732532_at) / Fold change /veh JSRP1 (11732532_at) / RFU KRTAP10-11 (11738290_x_at) / Fold change /veh KRTAP10-11 (11738290_x_at) / RFU MYO3A (11730013_a_at) / Fold change /veh MYO3A (11730013_a_at) / RFU EBF3 (11725865_a_at) / Fold change /veh EBF3 (11725865_a_at) / RFU CAMK2N1 (11719241_x_at) / Fold change /veh CAMK2N1 (11719241_x_at) / RFU C5orf56 (11738088_a_at) / Fold change /veh C5orf56 (11738088_a_at) / RFU OLFML3 (11715873_a_at) / Fold change /veh OLFML3 (11715873_a_at) / RFU LOC100653217 /// NTM (11731650_a_at) / Fold change /veh LOC100653217 /// NTM (11731650_a_at) / RFU MAPK11 (11762145_a_at) / Fold change /veh MAPK11 (11762145_a_at) / RFU FIZ1 (11724087_x_at) / Fold change /veh FIZ1 (11724087_x_at) / RFU OASL (11726364_x_at) / Fold change /veh OASL (11726364_x_at) / RFU SOX15 (11748057_x_at) / Fold change /veh SOX15 (11748057_x_at) / RFU CD79A (11719716_a_at) / Fold change /veh CD79A (11719716_a_at) / RFU HIST1H1D (11736915_at) / Fold change /veh HIST1H1D (11736915_at) / RFU CASKIN2 (11723855_a_at) / Fold change /veh CASKIN2 (11723855_a_at) / RFU LOC730098 (11760151_x_at) / Fold change /veh LOC730098 (11760151_x_at) / RFU OR4N2 (11742367_at) / Fold change /veh OR4N2 (11742367_at) / RFU PRRT2 (11749266_a_at) / Fold change /veh PRRT2 (11749266_a_at) / RFU SNX32 (11753110_a_at) / Fold change /veh SNX32 (11753110_a_at) / RFU CDHR5 (11726645_a_at) / Fold change /veh CDHR5 (11726645_a_at) / RFU RCAN1 (11760418_a_at) / Fold change /veh RCAN1 (11760418_a_at) / RFU FAM167A (11723789_a_at) / Fold change /veh FAM167A (11723789_a_at) / RFU FAM26E (11764081_at) / Fold change /veh FAM26E (11764081_at) / RFU ISYNA1 (11749810_s_at) / Fold change /veh ISYNA1 (11749810_s_at) / RFU ACY1 (11761880_at) / Fold change /veh ACY1 (11761880_at) / RFU 11764098_at / Fold change /veh 11764098_at / RFU SAMD14 (11745864_x_at) / Fold change /veh SAMD14 (11745864_x_at) / RFU NPB (11741838_a_at) / Fold change /veh NPB (11741838_a_at) / RFU TMPRSS6 (11731388_a_at) / Fold change /veh TMPRSS6 (11731388_a_at) / RFU KRTAP10-2 (11738614_at) / Fold change /veh KRTAP10-2 (11738614_at) / RFU ARHGAP8 /// PRR5-ARHGAP8 (11727945_x_at) / Fold change /veh ARHGAP8 /// PRR5-ARHGAP8 (11727945_x_at) / RFU KRTAP5-7 /// NADSYN1 (11734609_at) / Fold change /veh KRTAP5-7 /// NADSYN1 (11734609_at) / RFU RASL12 (11751679_a_at) / Fold change /veh RASL12 (11751679_a_at) / RFU CDKN2B (11736163_a_at) / Fold change /veh CDKN2B (11736163_a_at) / RFU PRF1 (11729649_at) / Fold change /veh PRF1 (11729649_at) / RFU, ZNF638 /// ZNF638-IT1 / Fold change vs veh, ZNF638 /// ZNF638-IT1 / RFU, PANK3 / Fold change vs veh, PANK3 / RFU, SH3YL1 / Fold change vs veh, SH3YL1 / RFU, ZEB2 / Fold change vs veh, ZEB2 / RFU, NRIP1 / Fold change vs veh, NRIP1 / RFU, PTTG1IP / Fold change vs veh, PTTG1IP / RFU, CAPN2 / Fold change vs veh, CAPN2 / RFU, MED14 / Fold change vs veh, MED14 / RFU, SNORA58 / Fold change vs veh, SNORA58 / RFU, C1orf63 / Fold change vs veh, C1orf63 / RFU, LRRFIP1 / Fold change vs veh, LRRFIP1 / RFU, NDUFAF7 / Fold change vs veh, NDUFAF7 / RFU, SLC12A2 / Fold change vs veh, SLC12A2 / RFU, IBTK / Fold change vs veh, IBTK / RFU, ESF1 / Fold change vs veh, ESF1 / Fold change vs veh, TMEM50B / RFU, TAOK1 / Fold change vs veh, TAOK1 / RFU, ACBD3 / Fold change vs veh, ACBD3 / RFU, TMA16 / Fold change vs veh, TMA16 / RFU, RWDD3 / Fold change vs veh, RWDD3 / RFU, BCAT1 / Fold change vs veh, BCAT1 / RFU, EDEM3 / Fold change vs veh, EDEM3 / RFU, TMEM33 / Fold change vs veh, TMEM33 / RFU, WDR75 / Fold change vs veh, WDR75 / RFU, AHCTF1 / Fold change vs veh, AHCTF1 / RFU, TFRC / Fold change vs veh, TFRC / RFU, ZDHHC17 / Fold change vs veh, ZDHHC17 / RFU, NOM1 / Fold change vs veh, NOM1 / RFU, ARL8B / Fold change vs veh, ARL8B / RFU, ZBTB11 / Fold change vs veh, ZBTB11 / RFU, TAMM41 / Fold change vs veh, TAMM41 / RFU, KIAA1704 /// LOC100996395 / Fold change vs veh, KIAA1704 /// LOC100996395 / RFU, ING1 / Fold change vs veh, ING1 / RFU, TRMT61B / Fold change vs veh, TRMT61B / RFU, FUBP3 / Fold change vs veh, FUBP3 / RFU, TP53 / Fold change vs veh, TP53 / RFU, TNKS2 / Fold change vs veh, TNKS2 / RFU, ZFP14 / Fold change vs veh, ZFP14 / RFU, ACTR2 / Fold change vs veh, ACTR2 / RFU, PPP3R1 / Fold change vs veh, PPP3R1 / RFU, PIK3R1 / Fold change vs veh, PIK3R1 / RFU, HNRNPA1 / Fold change vs veh, HNRNPA1 / RFU, RNF170 / Fold change vs veh, RNF170 / RFU, ZNF28 / Fold change vs veh, ZNF28 / RFU, RNGTT / Fold change vs veh, RNGTT / RFU, OGT / Fold change vs veh, OGT / RFU, BRD1 / Fold change vs veh, BRD1 / RFU, MARS / Fold change vs veh, MARS / RFU, ZNF655 / Fold change vs veh, ZNF655 / RFU, FAHD1 / Fold change vs veh, FAHD1 / RFU, BDP1 / Fold change vs veh, BDP1 / RFU, LRRCC1 / Fold change vs veh, LRRCC1 / RFU, ARID1A / Fold change vs veh, ARID1A / RFU, ZNF146 / Fold change vs veh, ZNF146 / RFU, ZNF330 / Fold change vs veh, ZNF330 / RFU, GPN3 / Fold change vs veh, GPN3 / RFU, C9orf123 / Fold change vs veh, C9orf123 / RFU, N4BP2L2 / Fold change vs veh, N4BP2L2 / RFU, ARFIP1 / Fold change vs veh, ARFIP1 / RFU, FAM179B / Fold change vs veh, FAM179B / RFU, BCL10 / Fold change vs veh, BCL10 / RFU, UHRF1BP1L / Fold change vs veh, UHRF1BP1L / RFU, BET1 / Fold change vs veh, BET1 / RFU, CNOT2 / Fold change vs veh, CNOT2 / RFU, ZNF268 / Fold change vs veh, ZNF268 / Fold change vs veh, ZNF507 / RFU, DGCR2 / Fold change vs veh, DGCR2 / RFU, WDSUB1 / Fold change vs veh, WDSUB1 / Fold change vs veh, HSP90B1 /// MIR3652 / RFU, ADSS / Fold change vs veh, ADSS / RFU, GK / Fold change vs veh, GK / RFU, ZNF148 / Fold change vs veh, ZNF148 / RFU, TAF9 / Fold change vs veh, TAF9 / RFU, SLC1A5 / Fold change vs veh, SLC1A5 / RFU, SLMO2 / Fold change vs veh, SLMO2 / RFU, ABCC4 / Fold change vs veh, ABCC4 / RFU, LOC101060439 /// RAP1B / Fold change vs veh, LOC101060439 /// RAP1B / RFU, RFX7 / Fold change vs veh, RFX7 / RFU, GTPBP10 / Fold change vs veh, GTPBP10 / RFU, CNEP1R1 / Fold change vs veh, CNEP1R1 / RFU, BIVM-ERCC5 /// ERCC5 / Fold change vs veh, BIVM-ERCC5 /// ERCC5 / RFU, ILF3 / Fold change vs veh, ILF3 / RFU 11762660_at / Fold change /veh 11762660_at / RFU VCAN (11757783_s_at) / Fold change /veh VCAN (11757783_s_at) / RFU DDX43 (11728927_at) / Fold change /veh DDX43 (11728927_at) / RFU KRT8 (11758188_x_at) / Fold change /veh KRT8 (11758188_x_at) / RFU NKD1 (11759106_at) / Fold change /veh NKD1 (11759106_at) / RFU SRD5A1 (11742802_a_at) / Fold change /veh SRD5A1 (11742802_a_at) / RFU TPSAB1 /// TPSB2 (11721975_s_at) / Fold change /veh TPSAB1 /// TPSB2 (11721975_s_at) / RFU GSTM3 (11746129_a_at) / Fold change /veh GSTM3 (11746129_a_at) / RFU IL23R (11737362_x_at) / Fold change /veh IL23R (11737362_x_at) / RFU TMEM51 (11727254_a_at) / Fold change /veh TMEM51 (11727254_a_at) / RFU PIWIL2 (11732686_x_at) / Fold change /veh PIWIL2 (11732686_x_at) / RFU ORM1 (11744905_x_at) / Fold change /veh ORM1 (11744905_x_at) / RFU CCDC152 (11743942_at) / Fold change /veh CCDC152 (11743942_at) / RFU ECM1 (11717891_a_at) / Fold change /veh ECM1 (11717891_a_at) / RFU IL23R (11748794_a_at) / Fold change /veh IL23R (11748794_a_at) / RFU TNFAIP8L3 (11732012_x_at) / Fold change /veh TNFAIP8L3 (11732012_x_at) / RFU MBOAT4 (11741988_at) / Fold change /veh MBOAT4 (11741988_at) / RFU 11764193_at / Fold change /veh 11764193_at / RFU TMEM53 (11763286_at) / Fold change /veh TMEM53 (11763286_at) / RFU MAGEB2 (11727129_at) / Fold change /veh MAGEB2 (11727129_at) / RFU TMEM200A (11744735_a_at) / Fold change /veh TMEM200A (11744735_a_at) / RFU CCDC152 (11751479_a_at) / Fold change /veh CCDC152 (11751479_a_at) / RFU FAM211A (11726209_a_at) / Fold change /veh FAM211A (11726209_a_at) / RFU RGS16 (11746705_a_at) / Fold change /veh RGS16 (11746705_a_at) / RFU VCAN (11755009_s_at) / Fold change /veh VCAN (11755009_s_at) / RFU RHOB (11743442_s_at) / Fold change /veh RHOB (11743442_s_at) / RFU RGS16 (11720943_a_at) / Fold change /veh RGS16 (11720943_a_at) / RFU RGS16 (11720944_at) / Fold change /veh RGS16 (11720944_at) / RFU, VPS4B / Fold change vs veh, VPS4B / RFU, CREB1 / Fold change vs veh, CREB1 / RFU, DNAJC13 / Fold change vs veh, DNAJC13 / RFU, GNAQ / Fold change vs veh, GNAQ / RFU, CDK5R1 / Fold change vs veh, CDK5R1 / RFU, ZRANB3 / Fold change vs veh, ZRANB3 / RFU, CUL4A / Fold change vs veh, CUL4A / RFU, CCNY / Fold change vs veh, CCNY / RFU, UFL1 / Fold change vs veh, UFL1 / RFU, COG3 / Fold change vs veh, COG3 / RFU, DIAPH2 / Fold change vs veh, DIAPH2 / RFU, SKA2 / Fold change vs veh, SKA2 / RFU, AFF3 / Fold change vs veh, AFF3 / RFU, LMF1 / Fold change vs veh, LMF1 / RFU, IPO11 / Fold change vs veh, IPO11 / RFU, DFFB / Fold change vs veh, DFFB / RFU, FOXP1 / Fold change vs veh, FOXP1 / RFU, CARD8 / Fold change vs veh, CARD8 / RFU, STRN3 / Fold change vs veh, STRN3 / RFU, ADK / Fold change vs veh, ADK / RFU, RASSF2 / Fold change vs veh, RASSF2 / RFU, WIPF1 / Fold change vs veh, WIPF1 / RFU, LARP1B / Fold change vs veh, LARP1B / RFU, RASA1 / Fold change vs veh, RASA1 / RFU, RB1 / Fold change vs veh, RB1 / RFU, PPFIA1 / Fold change vs veh, PPFIA1 / RFU, MAT2A / Fold change vs veh, MAT2A / RFU, CCT5 / Fold change vs veh, CCT5 / RFU, WDR92 / Fold change vs veh, WDR92 / RFU, CUX1 / Fold change vs veh, CUX1 / RFU, TTC7A / Fold change vs veh, TTC7A / RFU, TMEM135 / Fold change vs veh, TMEM135 / RFU, DEPTOR / Fold change vs veh, DEPTOR / RFU, CPM / Fold change vs veh, CPM / RFU, DNAJB6 / Fold change vs veh, DNAJB6 / RFU, CACNA2D3 / Fold change vs veh, CACNA2D3 / RFU, DTX4 / Fold change vs veh, DTX4 / RFU, TFCP2 / Fold change vs veh, TFCP2 / RFU, GMCL1 /// GMCL1P1 / Fold change vs veh, GMCL1 /// GMCL1P1 / RFU, AEBP2 / Fold change vs veh, AEBP2 / RFU, SNHG1 /// SNORD22 /// SNORD25 /// SNORD26 /// SNORD27 /// SNORD28 /// SNORD29 /// SNORD31 / Fold change vs veh, SNHG1 /// SNORD22 /// SNORD25 /// SNORD26 /// SNORD27 /// SNORD28 /// SNORD29 /// SNORD31 / Fold change (Aza/veh), C12orf56 (ProbeSet 11735607_a_at) / Fold change (ACY-1035/veh), C12orf56 (ProbeSet 11735607_a_at) / Fold change (Aza/veh), FGFR1OP (ProbeSet 11751329_s_at) / Fold change (ACY-1035/veh), FGFR1OP (ProbeSet 11751329_s_at) / Fold change (Aza/veh), VPS36 (ProbeSet 11739960_a_at) / Fold change (ACY-1035/veh), VPS36 (ProbeSet 11739960_a_at) / RFU SYPL1 (11715823_x_at) / Fold change /veh SYPL1 (11715823_x_at) / RFU IGFBP7 (11715501_s_at) / Fold change /veh IGFBP7 (11715501_s_at) / RFU REEP3 (11722064_at) / Fold change /veh REEP3 (11722064_at) / RFU IGLL1 (11728026_x_at) / Fold change /veh IGLL1 (11728026_x_at): dose or concentration left out as unconfirmed
Details: MV-4-11 cells, 48 hours

Nc1ncn([C@@H]2O[C@H](CO)[C@@H](O)[C@H]2O)c(=O)n1 [azacitidine]
RFU CAPN14 (11732068_a_at): 10.94 RFU
